Reference: patent US20240174690A1, “ANNULATED 2-AMINO-3-CYANO THIOPHENES AND DERIVATIVES FOR THE TREATMENT OF CANCER” (BOEHRINGER INGELHEIM INTERNATIONAL GMBH, priority 2021, published 2024)
pIC50: −log10 of the molar value. Read-outs that look alike come from different tables or passages of the source.

How the values were obtained:
AsPC-1 cells = test: AsPC-1 CTG proliferation assay (120 h) (pancreatic cancer, G12D); type: cell-based
In short: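 CellTiter-Glo luminescence, normalised to DMSO wells, measured viability after 120 h compound exposure. Cells were AsPC-1 pancreatic cancer (G12D) plated at 2000 per well in RPMI/10% FCS the day before dosing. IC50 derived by four-parameter regression.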

[1] = Metabolic (microsomal) stability assay, human liver microsomes (HLM); type: in vitro ADME; details: predicted clearance as percent of liver blood flow, 1 μM
In short: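 LC-MS/MS tracked parent disappearance at 0, 5, 15, 30 and 60 min in NADPH-initiated incubations with 1 mg/mL human microsomal protein and 1 μM compound at 37°C, pH 7.5. First-order fits gave intrinsic clearance, which was scaled up and reported as % QH. NADPH-free controls were also run.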

SMILES | pIC50 (AsPC-1 cells; Homo sapiens, ASPC1) | HLM QH [1] | pIC50 (AsPC-1 cells)
C[C@H](Oc1nc(-c2onc3c2CCC[C@@]32CCCc3sc(N)c(C#N)c32)cc(N2CCNC3(CC3)C2)n1)[C@@H]1CCCN1C [I-2] | – | 44% | –
C[C@H](Oc1cc(-c2ccn(C)n2)nc(-c2onc3c2CCC[C@@]32CCCc3sc(N)c(C#N)c32)n1)[C@@H]1CCCN1C [I-21] | – | 44% | 5.53
C[C@H](Oc1cc(N2CCN(C)C3(COC3)C2)nc(-c2onc3c2CCC[C@@]32CCCc3sc(N)c(C#N)c32)n1)[C@@H]1C[C@@H](F)CN1C [I-37] | 6.22 | 51% | –
C[C@H](Oc1cc(N2CCN(C)C3(CC3)C2)nc(-c2onc3c2CCC[C@@]32CCCc3sc(N)c(C#N)c32)n1)[C@@H]1C[C@@H](F)CN1C [I-39] | 6.83 | 39% | –
C[C@H](Oc1nc(-c2onc3c2CCC[C@@]32CCCc3sc(N)c(C#N)c32)cc(N2CCN(C)C3(CC3)C2)n1)[C@@H]1CCCN1C [I-40] | – | 42% | –
C[C@H]1CN(C)CCCN1c1nc(-c2onc3c2CCC[C@@]32CCCc3sc(N)c(C#N)c32)cc(N2CCN(C)C3(CC3)C2)n1 [I-42] | – | 42% | –
C[C@H](Oc1cc(N2CCNC3(CC3)C2)nc(-c2onc3c2CCC[C@@]32CCCc3sc(N)c(C#N)c32)n1)[C@@H]1C[C@@H](F)CN1C [I-45] | 7.49 | 45% | –
CO[C@H]1CCN(C)[C@@H]1[C@H](C)Oc1cc(-n2ccc(CC(=O)NC(C)C)n2)nc(-c2onc3c2CCC[C@@]32CCCc3sc(N)c(C#N)c32)n1 [I-48] | 6.42 | 51% | –
CO[C@H]1CCN(C)[C@@H]1[C@H](C)Oc1cc(N2CCNC3(CC3)C2)nc(-c2onc3c2CCC[C@@]32CCCc3sc(N)c(C#N)c32)n1 [I-49] | 7.70 | 40% | –
CO[C@@H]1C[C@@H]([C@H](C)Oc2cc(N3CCN(C)C4(CC4)C3)nc(-c3onc4c3CCC[C@@]43CCCc4sc(N)c(C#N)c43)n2)N(C)C1 [I-50] | 6.94 | 44% | –
CO[C@H]1CCN(C)[C@@H]1[C@H](C)Oc1cc(-n2ccc(C(=O)N[C@@H]3CCOC3)n2)nc(-c2onc3c2CCC[C@@]32CCCc3sc(N)c(C#N)c32)n1 [I-53] | 6.38 | 56% | –
CO[C@H]1CCN(C)[C@@H]1[C@H](C)Oc1cc(-n2ccc(C(=O)N[C@H]3CCOC3)n2)nc(-c2onc3c2CCC[C@@]32CCCc3sc(N)c(C#N)c32)n1 [I-54] | 6.58 | 52% | –
COCCNC(=O)c1ccn(-c2cc(O[C@@H](C)[C@@H]3[C@@H](OC)CCN3C)nc(-c3onc4c3CCC[C@@]43CCCc4sc(N)c(C#N)c43)n2)n1 [I-55] | 6.25 | 56% | –
C[C@H](Oc1cc(-n2ccc(C(=O)N[C@@H]3CCOC3)n2)nc(-c2onc3c2CCC[C@@]32CCCc3sc(N)c(C#N)c32)n1)[C@@H]1CCCN1C [I-56] | 6.16 | 25% | –
C[C@H](NC(=O)c1ccn(-c2cc(O[C@@H](C)[C@@H]3CCCN3C)nc(-c3onc4c3CCC[C@@]43CCCc4sc(N)c(C#N)c43)n2)n1)c1ccccn1 [I-59] | 6.35 | <24% | –
C[C@H](Oc1cc(N2CC(N(C)C)C2)nc(-c2noc3c2CCC[C@@]32CCCc3sc(N)c(C#N)c32)n1)[C@@H]1CCCN1C [II-7] | 5.79 | <24% | –
C[C@H](Oc1cc(N2CCN(CCO)CC2)nc(-c2noc3c2CCC[C@@]32CCCc3sc(N)c(C#N)c32)n1)[C@@H]1CCCN1C [II-8] | 5.56 | <24% | –
C[C@H](Oc1cc(N2C[C@@H](N(C)C)[C@@H](O)C2)nc(-c2noc3c2CCC[C@@]32CCCc3sc(N)c(C#N)c32)n1)[C@@H]1CCCN1C [II-10] | 6.09 | <24% | –
C[C@H](Oc1cc(N2C[C@@H](N(C)C)[C@@H](F)C2)nc(-c2noc3c2CCC[C@@]32CCCc3sc(N)c(C#N)c32)n1)[C@@H]1CCCN1C [II-11] | 5.85 | <24% | –
C[C@H](Oc1cc(N2CC[C@H](N3CCCCC3)C2)nc(-c2noc3c2CCC[C@@]32CCCc3sc(N)c(C#N)c32)n1)[C@@H]1CCCN1C [II-12] | 6.26 | <24% | –
C[C@H](Oc1cc(N2CCN(C)C3(COC3)C2)nc(-c2noc3c2CCC[C@@]32CCCc3sc(N)c(C#N)c32)n1)[C@@H]1CCCN1C [II-13] | 6.60 | <24% | –
C[C@H](Oc1cc(N2CC[C@H](N3CCCC3)C2)nc(-c2noc3c2CCC[C@@]32CCCc3sc(N)c(C#N)c32)n1)[C@@H]1CCCN1C [II-14] | 6.61 | <24% | –
C[C@H](Oc1cc(N2CC[C@H](N(C)C)C2)nc(-c2noc3c2CCC[C@@]32CCCc3sc(N)c(C#N)c32)n1)[C@@H]1C[C@@H](F)CN1C [II-15] | 6.66 | <24% | –
C[C@H]1CN(C)CCCN1c1cc(N2CC[C@H](N(C)C)C2)nc(-c2noc3c2CCC[C@@]32CCCc3sc(N)c(C#N)c32)n1 [II-16] | 5.72 | <24% | –
C[C@@H]1CN(c2cc(O[C@@H](C)[C@@H]3C[C@@H](F)CN3C)nc(-c3noc4c3CCC[C@@]43CCCc4sc(N)c(C#N)c43)n2)CC2(CC2)N1 [II-17] | 6.60 | 63% | –
C[C@H](Oc1cc(N2CCNCC2)nc(-c2noc3c2CCC[C@@]32CCCc3sc(N)c(C#N)c32)n1)[C@@H]1CCCN1C [II-45] | 5.64 | – | –

The next lines start with results.

pIC50 (AsPC-1 cells; Homo sapiens, ASPC1) | HLM QH [1] | SMILES | pIC50 (AsPC-1 cells)
5.23 | 79% | C[C@H](Oc1cc(Cl)nc(-c2onc3c2CCC[C@@]32CCCc3sc(N)c(C#N)c32)n1)[C@@H]1CCCN1C [I-1] | –
6.56 | <24% | C[C@H](Oc1cc(N2CCNC3(CCC3)C2)nc(-c2onc3c2CCC[C@@]32CCCc3sc(N)c(C#N)c32)n1)[C@@H]1CCCN1C [I-3] | –
7.19 | <24% | C[C@H](Oc1cc(N2CCNC3(COC3)C2)nc(-c2onc3c2CCC[C@@]32CCCc3sc(N)c(C#N)c32)n1)[C@@H]1CCCN1C [I-4] | –
5.27 | 30% | C[C@H](Oc1cc(-n2ccnc2)nc(-c2onc3c2CCC[C@@]32CCCc3sc(N)c(C#N)c32)n1)[C@@H]1CCCN1C [I-20] | –
6.19 | 37% | C[C@H](Oc1cc([C@@H]2CCOC2)nc(-c2onc3c2CCC[C@@]32CCCc3sc(N)c(C#N)c32)n1)[C@@H]1CCCN1C [I-22] | –
5.09 | 45% | CO[C@@H]1C[C@@H]([C@H](C)Oc2cc(-c3ccn(C)n3)nc(-c3onc4c3CCC[C@@]43CCCc4sc(N)c(C#N)c43)n2)N(C)C1 [I-23] | –
5.46 | <24% | Cc1nc(-c2cc(O[C@@H](C)[C@@H]3CCCN3C)nc(-c3onc4c3CCC[C@@]43CCCc4sc(N)c(C#N)c43)n2)cs1 [I-24] | –
5.46 | <24% | C[C@H](Oc1cc(-c2ccc(N)nc2)nc(-c2onc3c2CCC[C@@]32CCCc3sc(N)c(C#N)c32)n1)[C@@H]1CCCN1C [I-25] | –
5.65 | <24% | C[C@H](Oc1cc(-c2ccn(CC(C)(C)O)n2)nc(-c2onc3c2CCC[C@@]32CCCc3sc(N)c(C#N)c32)n1)[C@@H]1CCCN1C [I-26] | –
5.67 | <24% | C[C@H](Oc1cc(-c2cnsc2)nc(-c2onc3c2CCC[C@@]32CCCc3sc(N)c(C#N)c32)n1)[C@@H]1CCCN1C [I-27] | –
5.47 | <24% | Cc1ccc(-c2cc(O[C@@H](C)[C@@H]3CCCN3C)nc(-c3onc4c3CCC[C@@]43CCCc4sc(N)c(C#N)c43)n2)cn1 [I-28] | –
4.99 | 27% | C[C@H](Oc1cc(-n2nccn2)nc(-c2onc3c2CCC[C@@]32CCCc3sc(N)c(C#N)c32)n1)[C@@H]1CCCN1C [I-29] | –
5.34 | <24% | C[C@H](Oc1cc(-c2ccn(C[C@@H](C)O)n2)nc(-c2onc3c2CCC[C@@]32CCCc3sc(N)c(C#N)c32)n1)[C@@H]1CCCN1C [I-30] | –
– | <24% | C[C@H](O)Cn1ccc(-c2cc(O[C@@H](C)[C@@H]3CCCN3C)nc(-c3onc4c3CCC[C@@]43CCCc4sc(N)c(C#N)c43)n2)n1 [I-31] | –
5.35 | 45% | C[C@H](Oc1cc(-n2ccnn2)nc(-c2onc3c2CCC[C@@]32CCCc3sc(N)c(C#N)c32)n1)[C@@H]1CCCN1C [I-32] | –
5.43 | <24% | C[C@H](Oc1cc(-c2ccn3ncnc3c2)nc(-c2onc3c2CCC[C@@]32CCCc3sc(N)c(C#N)c32)n1)[C@@H]1CCCN1C [I-33] | –
5.38 | <24% | C[C@H](Oc1cc(-c2ccn(C3COC3)n2)nc(-c2onc3c2CCC[C@@]32CCCc3sc(N)c(C#N)c32)n1)[C@@H]1CCCN1C [I-34] | –
6.53 | <24% | C[C@H](Oc1cc(N2CCN(C)C3(CC3)C2)nc(-c2onc3c2CCC[C@@]32CCCc3sc(N)c(C#N)c32)n1)[C@@H]1CCCN1C [I-41] | –
6.00 | <24% | C[C@H](Oc1cc(N2C[C@H](C)N(C)[C@@H](C)C2)nc(-c2onc3c2CCC[C@@]32CCCc3sc(N)c(C#N)c32)n1)[C@@H]1CCCN1C [I-43] | –
6.01 | <24% | C[C@H](Oc1cc(N2CCN(C)C3(CCC3)C2)nc(-c2onc3c2CCC[C@@]32CCCc3sc(N)c(C#N)c32)n1)[C@@H]1CCCN1C [I-44] | –
6.56 | – | C[C@H](Oc1cc(-n2ccc(C(=O)N[C@H]3CCOC3)n2)nc(-c2onc3c2CCC[C@@]32CCCc3sc(N)c(C#N)c32)n1)[C@@H]1CCCN1C [I-57] | –
6.16 | 34% | COCCNC(=O)c1ccn(-c2cc(O[C@@H](C)[C@@H]3CCCN3C)nc(-c3onc4c3CCC[C@@]43CCCc4sc(N)c(C#N)c43)n2)n1 [I-58] | –
6.11 | <24% | C[C@H](Oc1cc(-n2ccc(C(=O)N(C)C3COC3)n2)nc(-c2onc3c2CCC[C@@]32CCCc3sc(N)c(C#N)c32)n1)[C@@H]1CCCN1C [I-60] | –
